Measured values reported in ChEMBL document CHEMBL3758124, “Synthesis and biological evaluation of new securinine analogues as potential anticancer agents” (Eur J Med Chem, 2016).

Experiments:
[1] = Cytotoxicity against human HL60 cells assessed as growth inhibition after 72 hrs by ATPlite assay; type: functional, cell-based; details: HL-60, 72 h
[2] = Cytotoxicity against human HCT116 cells assessed as growth inhibition after 72 hrs by ATPlite assay; type: functional, cell-based; details: HCT-116, 72 h
A-375 = assay: Cytotoxicity against human A375 cells assessed as growth inhibition after 72 hrs by ATPlite assay; type: functional, cell-based; details: A-375, 72 h
[3] = Cytotoxicity against human HCT116 cells assessed as growth inhibition at 10 uM after 72 hrs by ATPlite assay relative to control; type: functional; details: HCT-116, 72 h, read-out: GI
A549 [4] = assay: Cytotoxicity against human A549 cells assessed as growth inhibition after 72 hrs by ATPlite assay; type: functional, cell-based; details: A549, 72 h
[5] = Cytotoxicity against human HCT116 cells assessed as growth inhibition at 1 uM after 72 hrs by ATPlite assay relative to control; type: functional; details: HCT-116, 72 h, read-out: GI
[6] = Cytotoxicity against human HCT116 cells assessed as growth inhibition at 20 uM after 72 hrs by ATPlite assay relative to control; type: functional; details: HCT-116, 72 h, read-out: GI
Plasma [7] = assay: Stability in human plasma at 5 uM after 120 mins by LC-MS analysis; type: ADME, cell-free; details: 2 h
Plasma [8] = assay: Stability in mouse plasma at 5 uM after 120 mins by LC-MS analysis; type: ADME, cell-free; details: 2 h
Plasma [9] = assay: Stability in rat plasma at 5 uM after 120 mins by LC-MS analysis; type: ADME, cell-free; details: 2 h
MCF7 = assay: Cytotoxicity against human MCF7 cells assessed as growth inhibition by CCK8 assay; type: functional, cell-based
A549 [10] = assay: Cytotoxicity against human A549 cells after 72 hrs by Coulter counter analysis; type: functional, cell-based; details: A549, 72 h

For `Cc1cccc(C2=CC3=CC(=O)O[C@@]34C[C@@H]2N2CCCC[C@@H]24)c1`, the IC50 [1] was 130 nM, the IC50 [2] was 280 nM and the IC50 (A-375) was 70 nM. It also gave an inhibition of growth at 10 µM [3] of 93.3%, an IC50 (A549 [4]) of 140 nM and an inhibition of growth at 1 µM [5] of 75.5%. It also gave an inhibition of growth at 20 µM [6] of 92.5%.

Molecule `CN(C)c1ccc(C2=CC3=CC(=O)O[C@@]34C[C@@H]2N2CCCC[C@@H]24)cc1` has an inhibition of growth at 10 µM [3] of 21.5%, an inhibition of growth at 1 µM [5] of 3.7% and an inhibition of growth at 20 µM [6] of 47.6%.

With `COC(=O)c1ccc(C2=CC3=CC(=O)O[C@@]34C[C@@H]2N2CCCC[C@@H]24)cc1` the inhibition of growth at 10 µM [3] was 8.3%, the inhibition of growth at 1 µM [5] was 7.2% and the inhibition of growth at 20 µM [6] was 24.4%.

Molecule `O=C1C=C2C=C(c3cccc(F)c3)[C@@H]3C[C@@]2(O1)[C@H]1CCCCN31` has an inhibition of growth at 10 µM [3] of 80.3%, an inhibition of growth at 1 µM [5] of 32.1% and an inhibition of growth at 20 µM [6] of 84.1%.

In the case of `O=C1C=C2C=C(c3ccc(F)cc3)[C@@H]3C[C@@]2(O1)[C@H]1CCCCN31`, the inhibition of growth at 10 µM [3] is reported as 30.7%, the inhibition of growth at 1 µM [5] is reported as -2.6% and the inhibition of growth at 20 µM [6] is reported as 52.5%.

For `O=C1C=C2C=C(c3cccc(Cl)c3)[C@@H]3C[C@@]2(O1)[C@H]1CCCCN31`, the IC50 [1] was 140 nM, the IC50 [2] was 230 nM and the IC50 (A-375) was 80 nM. It also gave an inhibition of growth at 10 µM [3] of 93.4%, an IC50 (A549 [4]) of 110 nM and an inhibition of growth at 1 µM [5] of 76.6%. The inhibition of growth at 20 µM [6] was 93%.

Molecule `CC(=O)c1cccc(C2=CC3=CC(=O)O[C@@]34C[C@@H]2N2CCCC[C@@H]24)c1` has an inhibition of growth at 10 µM [3] of 35.3%, an inhibition of growth at 1 µM [5] of 3.6% and an inhibition of growth at 20 µM [6] of 65%.

`O=C1C=C2C=C(c3ccccc3)[C@@H]3C[C@@]2(O1)[C@H]1CCCCN31` showed an inhibition of growth at 10 µM [3] of 86.7%, an inhibition of growth at 1 µM [5] of 6.8% and an inhibition of growth at 20 µM [6] of 87.4%.

In the case of `O=C1C=C2C=C(c3cccc(C(F)(F)F)c3)[C@@H]3C[C@@]2(O1)[C@H]1CCCCN31`, the inhibition of growth at 10 µM [3] is reported as 81.9%, the inhibition of growth at 1 µM [5] is reported as 21% and the inhibition of growth at 20 µM [6] is reported as 83.1%.

`CC(=O)c1ccc(C2=CC3=CC(=O)O[C@@]34C[C@@H]2N2CCCC[C@@H]24)cc1` gave an inhibition of growth at 10 µM [3] of 11.7%, an inhibition of growth at 1 µM [5] of 2.4% and an inhibition of growth at 20 µM [6] of 27.3%.

`Cc1ccc(C2=CC3=CC(=O)O[C@@]34C[C@@H]2N2CCCC[C@@H]24)cc1` gave an inhibition of growth at 10 µM [3] of 73%, an inhibition of growth at 1 µM [5] of 3.4% and an inhibition of growth at 20 µM [6] of 82.9%.

Molecule `O=C1C=C2C=C(c3ccc4c(c3)Cc3ccccc3-4)[C@@H]3C[C@@]2(O1)[C@H]1CCCCN31` has an inhibition of growth at 10 µM [3] of 53.6%, an inhibition of growth at 1 µM [5] of 20.9% and an inhibition of growth at 20 µM [6] of 75.1%.

Molecule `COC(=O)c1cccc(C2=CC3=CC(=O)O[C@@]34C[C@@H]2N2CCCC[C@@H]24)c1` has an inhibition of growth at 10 µM [3] of 60.2%, an inhibition of growth at 1 µM [5] of 4% and an inhibition of growth at 20 µM [6] of 82.8%.

For `O=C1C=C2C=C(c3ccc4ccccc4c3)[C@@H]3C[C@@]2(O1)[C@H]1CCCCN31`, the inhibition of growth at 10 µM [3] was 30.9%, the inhibition of growth at 1 µM [5] was 10.8% and the inhibition of growth at 20 µM [6] was 51.1%.

For `COc1cccc(C2=CC3=CC(=O)O[C@@]34C[C@@H]2N2CCCC[C@@H]24)c1`, the Stability (Plasma [7]) was “Stable”, the Stability (Plasma [8]) was “Stable” and the IC50 [1] was 140 nM. The IC50 [2] was 260 nM, the IC50 (A-375) was 80 nM and the inhibition of growth at 10 µM [3] was 92.7%. For the same molecule, the Stability (Plasma [9]) was “Stable”, the IC50 (A549 [4]) was 120 nM and the inhibition of growth at 1 µM [5] was 76.3%. For the same molecule, the inhibition of growth at 20 µM [6] was 92.8%.

In the case of `O=C1C=C2C=C[C@@H]3C[C@@]2(O1)[C@H]1CCCCN31` [SECURININE], the Stability (Plasma [7]) is reported as “Stable”, the Stability (Plasma [8]) is reported as “Stable” and the IC50 [1] is reported as > 10000 nM. The IC50 [2] was > 10000 nM, the IC50 (A-375) was 6100 nM and the IC50 (MCF7) was 25000 nM. The inhibition of growth at 10 µM [3] was 50.6%, the IC50 (A549 [10]) was 25000 nM and the Stability (Plasma [9]) was “Stable”. For the same molecule, the IC50 (A549 [4]) was > 10000 nM, the inhibition of growth at 1 µM [5] was 7.6% and the inhibition of growth at 20 µM [6] was 90.7%.

With `COc1cc([C@@H]2c3cc4c(cc3[C@@H](O[C@@H]3O[C@@H]5CO[C@@H](C)O[C@H]5[C@H](O)[C@H]3O)[C@H]3COC(=O)[C@H]23)OCO4)cc(OC)c1O` [ETOPOSIDE] the IC50 [1] was 860 nM, the IC50 [2] was > 10000 nM and the IC50 (A-375) was 240 nM. It also gave an IC50 (A549 [4]) of 590 nM.

In the case of `CN(C)c1cccc(C2=CC3=CC(=O)O[C@@]34C[C@@H]2N2CCCC[C@@H]24)c1`, the inhibition of growth at 10 µM [3] is reported as 52.7%, the inhibition of growth at 1 µM [5] is reported as 10.2% and the inhibition of growth at 20 µM [6] is reported as 75.7%.

Molecule `O=C1C=C2C=C(c3ccc4c(c3)OCO4)[C@@H]3C[C@@]2(O1)[C@H]1CCCCN31` has an inhibition of growth at 10 µM [3] of 86.9%, an inhibition of growth at 1 µM [5] of -1.7% and an inhibition of growth at 20 µM [6] of 90%.

Molecule `COc1ccc(C2=CC3=CC(=O)O[C@@]34C[C@@H]2N2CCCC[C@@H]24)cc1` has an inhibition of growth at 10 µM [3] of 9.4%, an inhibition of growth at 1 µM [5] of 11.7% and an inhibition of growth at 20 µM [6] of 24.8%.

For `O=C1C=C2C=C(c3ccc(Cl)c(Cl)c3)[C@@H]3C[C@@]2(O1)[C@H]1CCCCN31`, the inhibition of growth at 10 µM [3] was 61%, the inhibition of growth at 1 µM [5] was 12.3% and the inhibition of growth at 20 µM [6] was 80.5%.
